Measured values from patent US20140155397A1, “EMT SIGNATURES AND PREDICTIVE MARKERS AND METHOD OF USING THE SAME” (Board of Regents, priority 2011, published 2014).
Like-named read-outs stand apart in the source and are kept apart here.

Columns and labels:
NSCLC cell lines = experiment: Drug sensitivity (growth inhibition, MTS assay) of epithelial versus mesenchymal NSCLC cell lines; assay type: cell-based
Description: (§1) Average values were used for analysis as described. […] Chou T. C., et al., Quantitative Analysis of Dose-Effect Relationships: The Combined Effects of Multiple Drugs or Enzyme Inhibitors. Adv Enzyme Regul.
The EMT signature was derived in 54 DNA fingerprinted NSCLC cell lines profiled on Affymetrix U133A, B, and Plus2.0 arrays and tested on the Illumina WGv2 and WGv3 platforms and in an independent set of head and neck cancer lines (HNC). E-cadherin and other protein levels were quantified by reverse phase protein array and correlated with the first principal component of the EMT signature. IC50s were determined for NSCLC cell lines by MTS assay. Response to erlotinib was evaluated in patients treated in the BATTLE clinical trial using eight-week disease […] and progression free survival.

A549 = experiment: Proliferation, CellTiter-Glo Luminescent Cell Viability; assay type: cell-based; details: Homo sapiens, single agent
Description: as §1

Calu-1 = experiment: as above; assay type: cell-based; details: Homo sapiens, single agent
Description: as §1

H1299 = experiment: as above; assay type: cell-based; details: Homo sapiens, NCI-H1299, single agent
Description: as §1

H157 = experiment: as above; assay type: cell-based; details: Homo sapiens, NCI-H157, single agent
Description: as §1

H2882 = experiment: as above; assay type: cell-based; details: NCI-H2882, single agent
Description: as §1

H460 = experiment: as above; assay type: cell-based; details: Homo sapiens, NCI-H460, single agent
Description: as §1

[1] = system: Cells expressing high levels of Axl; experiment: Proliferation of six mesenchymal cell lines expressing high levels of Axl (summary); assay type: cell-based; details: single agent
Description: as §1

NSCLC patients = experiment: BATTLE clinical trial, 8-week disease control and progression-free survival; assay type: in vivo, human
Description: BATTLE (Biomarker-integrated Approaches of Targeted Therapy for Lung Cancer Elimination) was a randomized, biomarker-based clinical trial for patients with recurrent or metastatic NSCLC in the second-line setting (Trial registration ID: NCT00409968). Kim E. S. H. R., The BATTLE Trial: Personalizing Therapy for Lung Cancer, Cancer Discovery 1:43-51 (2011). mRNA from tumors obtained via core-needle biopsy at enrollment were profiled on Human Gene 1.0 ST array, Affymetrix. Array results were deposited in the GEO repository (GSE33072).
We used pretreatment gene expression profiles (Affymetrix […]) from 101 chemo-refractory patients in our Biomarkers-Integrated Approaches of Targeted Therapy for Lung Cancer Elimination (BATTLE) treated with E, E+bexarotene (EB), sorafenib (S), or vandetanib (V). 24 cases of with EGFR & KRAS tumors treated with E or EB were compared to train the signature (two-sided t-test), using the primary end-point of the trial[8-week disease control (8 with DC)]. Principal component (PC) analysis and a logistic regression model were used to develop the signature. Gene expression profiles from 108 NSCLC cell lines (Illumina), with available E IC50 (N=94) and DNA methylation profiling (N=66, Illumina), were used for in vitro studies.

In the case of `CNC(=O)c1cc(Oc2ccc(NC(=O)Nc3ccc(Cl)c(C(F)(F)F)c3)cc2)ccn1` [sorafenib], the “Fold higher mean IC50 in mesenchymal versus epithelial cell lines” value (shortened to “Fold higher mean IC50”) (NSCLC cell lines; all NSCLC cell lines) is reported as “not more resistant”.

In the case of `Nc1ncnc2c1nc(N)n2[C@@H]1O[C@H](CO)[C@@H](O)[C@H]1O` [8-amino-adenosine], the “Fold higher mean IC50” value (NSCLC cell lines; all NSCLC cell lines) is reported as 1.7 fold.

`C#Cc1cccc(Nc2ncnc3cc(OCCOC)c(OCCOC)cc23)c1` [Erlotinib, erlotinib] was tested, and the “Sensitivity of mesenchymal cells” value (NSCLC cell lines; SGI-7079 versus erlotinib, p<0.001 by Wilcoxon test) was “uniformly resistant”, the “Fold higher mean IC50” value (NSCLC cell lines; all NSCLC cell lines) was 3.7 fold and the “Fold higher mean IC50” value (NSCLC cell lines; subset with wild-type EGFR and wild-type KRAS) was 2 fold. The IC50 (A549) was 13.5 µM, the IC50 (Calu-1) was > 100 µM and the IC50 (H1299) was > 100 µM. For the same compound, the IC50 (H157) was 48.5 µM, the IC50 (H2882) was > 100 µM and the IC50 (H460) was > 100 µM. For the same compound, the IC50 ([1]; read-out: IC50 range across cell lines) was ≥ 13.5 µM, the IC50 ([1]; read-out: Mean IC50 across cell lines) was 77 µM and the “8-week DC rate” value (NSCLC patients; 5-gene signature-negative group) was 0%. The “8-week DC rate” value (NSCLC patients; 5-gene signature-positive group) was 83%, the “Median PFS” value (NSCLC patients; signature-negative group) was 7.2 weeks and the “Median PFS” value (NSCLC patients; signature-positive group) was 12.5 weeks. The “Progression-free survival hazard ratio” value (NSCLC patients; signature-positive versus signature-negative group, 95% CI 0.03-0.46) was 0.12 and the “Patients with 8-week disease control (DC)” value (NSCLC patients; wildtype EGFR and KRAS patients with mesenchymal signatures) was 1/5.

For `CS(=O)(=O)N1CCN(Cc2cc3nc(-c4cccc5[nH]ncc45)nc(N4CCOCC4)c3s2)CC1` [GDC0941], the “Fold higher mean IC50” value (NSCLC cell lines; all NSCLC cell lines) was 1.9 fold.

In the case of `NC1(c2ccc(-c3nc4ccn5c(=O)[nH]nc5c4cc3-c3ccccc3)cc2)CCC1` [MK2206], the “Fold higher mean IC50” value (NSCLC cell lines; all NSCLC cell lines) is reported as 1.5 fold.
